Paper PMC9019904, “AD Informer Set: Chemical tools to facilitate Alzheimer's disease drug discovery” (Alzheimer's & Dementia : Translational Research & Clinical …, 2022)
≈ marks a conversion by molar mass, not a printed value. Where a SMILES comes first, the peptide text is derived from it. [ ]: non-standard residue; d: D form. dHyp = O=C(O)[C@H]1C[C@H](O)CN1

Legend:
[1] = system: BV2 (mouse microglia) cell line; test: pHrodo-myelin phagocytosis/cell viability high content imaging assay: viability (cell count, nuclear area, nuclear intensity)
Outline: (§1)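 BV2 mouse and HMC3 human microglia were treated with compounds at 10 μM for 48 h, with pHrodo-myelin present for the last 20 h. Viability was imaged as total cell count per well and mean nuclear intensity per cell. Values are means of duplicates, normalized to untreated wells as % control.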

[2] = system: BV2 (mouse microglia) cell line; test: pHrodo-myelin phagocytosis/cell viability high content imaging assay: phagocytosis signal; assay type: cell-based
Outline: (§2)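 Phagocytosis and cell viability were measured together by high content imaging about 22 hours after pHrodo-myelin addition. Three measurements were extracted from the images. Intensity increase and decrease were taken as early and later apoptosis, respectively.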

[3] = system: HMC3 (human microglia) cell line; test: pHrodo-myelin phagocytosis/cell viability high content imaging assay: phagocytosis signal; assay type: cell-based
Outline: as §2

cellular system = details: published cellular activity at 10 μM; cited from earlier work
[4] = Kinetic solubility in aqueous buffer pH 7.4 by total chemiluminescent nitrogen determination (Analiza); details: for solubility kinetic: aqueous buffer, pH 7.4, aqueous buffer, kinetic from dmso stock
[5] = system: HMC3 (human microglia) cell line; test: pHrodo-myelin phagocytosis/cell viability high content imaging assay: viability (cell count, nuclear area, nuclear intensity); details: HMC3 cells, 10 μM, cell count <70% control
Outline: as §1

[6] = pH 7.4, aqueous buffer, kinetic from dmso stock
[7] = BV2 cells, 10 μM, cell count <70% control

| Structure (SMILES) | solubility kinetic (physchem; [6]) | Mouse microglial cytotoxicity at 10 μM (<70% control) [1, 7] | Inhibition of human microglial phagocytosis at 10 μM (<70% control) ([3]; HMC3 cells, 10 μM) | Reported as cell active (<10 μM) (cellular system) | solubility kinetic [4] | other results |
| --- | --- | --- | --- | --- | --- | --- |
| CCCN(CC1CC1)c1nc(C)nc(Nc2c(Cl)cc(Cl)cc2Cl)c1Cl.Cl [NBI 27914 (Compound 7a)] | < 0.5 µM | – | – | – | – | Mouse microglial cytotoxicity at 10 μM (<70% control) ([1]; BV2, 10 μM): Y (The compound was found to be cytotoxic (cell count threshold: <70% control) when murine immortalized microglial cells were dosed at 10 μM (Y: yes)); Stimulation of mouse microglial phagocytosis at 10 μM (>150% control) ([2]; BV2, 10 μM): Y (The compound was found to stimulate phagocytosis (response threshold: >150% control) when murine immortalized microglial cells were dosed at 10 μM (Y: yes)) |
| CNC(=O)c1c(F)cccc1Nc1nc(Nc2cc3c(cc2OC)CCN3C(=O)CN(C)C)nc2[nH]ccc12 [GSK1838705A] | 1 µM (≈ 0.533 µg/mL) | – | – | – | – | Mouse microglial cytotoxicity at 10 μM (<70% control) ([1]; BV2, 10 μM): Y (The compound was found to be cytotoxic (cell count threshold: <70% control) when murine immortalized microglial cells were dosed at 10 μM (Y: yes)); Inhibition of human microglial phagocytosis at 10 μM (<70% control) ([3]; HMC3, 10 μM): Y (The compound was found to inhibit phagocytosis (response threshold: <70% control) when human immortalized microglial cells were dosed at 10 μM (Y: yes)) |
| CNC(=O)CN1CCC(Oc2cc3c(Nc4cccc(Cl)c4F)ncnc3cc2OC)CC1 [Sapitinib (AZD8931)] | 115 µM (≈ 54.3 µg/mL) | – | – | – | – | Inhibition of mouse microglial phagocytosis at 10 μM (<70% control) ([2]; BV2, 10 μM): Y (The compound was found to inhibit phagocytosis (response threshold: <70% control) when murine immortalized microglial cells were dosed at 10 μM (Y: yes)); Stimulation of human microglial phagocytosis at 10 μM (>150% control) ([3]; HMC3, 10 μM): Y (The compound was found to stimulate phagocytosis (response threshold: >150% control) when human immortalized microglial cells were dosed at 10 μM (Y: yes)) |
| CC(=O)N[C@H](Cc1ccc(O)cc1)C(=O)N1CCC[C@@H]1C(=O)N1C[C@@H](O)C[C@@H]1C(=O)NCC(=O)N[C@H](C)C(=O)NCC(N)=O [Rotigaptide] (Ac-[dY][dP][dHyp]G[dA]G-NH2) | – | – | – | – | – | solubility kinetic (physchem; pH 7.4): 177 µM (≈ 110 µg/mL) |
| COc1ccc(CC[C@@H](OC(=O)[C@@H]2CCCCN2C(=O)[C@H](c2cc(OC)c(OC)c(OC)c2)C2CCCCC2)c2cccc(OCC(=O)O)c2)cc1OC [SAFit1] | 87.3 µM (≈ 65.3 µg/mL) | – | – | – | – | Stimulation of mouse microglial phagocytosis at 10 μM (>150% control) ([2]; 10 μM, BV2): Y (The compound was found to stimulate phagocytosis (response threshold: >150% control) when murine immortalized microglial cells were dosed at 10 μM (Y: yes)) |
| CCOC(=O)CS(=O)(=O)c1ccc([C@@H](CO)NC(=O)c2cc3c(Cl)c(Cl)c(C)cc3n2C)cc1 [BI-4916] | – | Y (The compound was found to be cytotoxic (cell count threshold: <70% control) when murine immortalized microglial cells were dosed at 10 μM (Y: yes)) | Y (The compound was found to inhibit phagocytosis (response threshold: <70% control) when human immortalized microglial cells were dosed at 10 μM (Y: yes)) | Y (Published data supports that the compound is active in a cellular system when dosed at 10 μM (Y/N)) | < 1.1 µM | Stimulation of mouse microglial phagocytosis at 10 μM (>150% control) ([2]; BV2 cells, 10 μM): Y (The compound was found to stimulate phagocytosis (response threshold: >150% control) when murine immortalized microglial cells were dosed at 10 μM (Y: yes)) |
| CC(C)(C)c1cc(NC(=O)Nc2ccc(-c3cn4c(n3)sc3cc(OCCN5CCOCC5)ccc34)cc2)no1 [Quizartinib] | 0.9 µM (≈ 0.505 µg/mL) | – | – | – | – | – |
| CC(=O)N1CCC(NC(=O)NC23CC4CC(CC(C4)C2)C3)CC1 [AR9281] | 163 µM (≈ 51.9 µg/mL) | – | – | – | – | Stimulation of mouse microglial phagocytosis at 10 μM (>150% control) ([2]; BV2, 10 μM): Y (The compound was found to stimulate phagocytosis (response threshold: >150% control) when murine immortalized microglial cells were dosed at 10 μM (Y: yes)) |
| C=Cc1c(C)c2cc3nc(cc4[nH]c(cc5nc(cc1[nH]2)C(C)=C5CCC(=O)O)c(CCC(=O)OC)c4C)[C@@]1(C)C3=CC=C(C(=O)OC)[C@H]1C(=O)OC [Verteporfin] | 134 µM (≈ 96.7 µg/mL) | – | – | – | – | Stimulation of mouse microglial phagocytosis at 10 μM (>150% control) ([2]; BV2, 10 μM): Y (The compound was found to stimulate phagocytosis (response threshold: >150% control) when murine immortalized microglial cells were dosed at 10 μM (Y: yes)); Inhibition of human microglial phagocytosis at 10 μM (<70% control) ([3]; HMC3, 10 μM): Y (The compound was found to inhibit phagocytosis (response threshold: <70% control) when human immortalized microglial cells were dosed at 10 μM (Y: yes)) |
| CCOC(=O)c1sc(NC(=O)c2ccco2)c(SC#N)c1C [CBR-5884] | – | Y (The compound was found to be cytotoxic (cell count threshold: <70% control) when murine immortalized microglial cells were dosed at 10 μM (Y: yes)) | Y (The compound was found to inhibit phagocytosis (response threshold: <70% control) when human immortalized microglial cells were dosed at 10 μM (Y: yes)) | N (tested/active at 15 μM) | 2.8 µM (≈ 0.942 µg/mL) | Stimulation of mouse microglial phagocytosis at 10 μM (>150% control) ([2]; BV2 cells, 10 μM): Y (The compound was found to stimulate phagocytosis (response threshold: >150% control) when murine immortalized microglial cells were dosed at 10 μM (Y: yes)) |
| CCCCc1nc(Cl)c(CO)n1Cc1ccc(-c2ccccc2-c2nn[nH]n2)cc1 [Losartan] | 117 µM (≈ 49.6 µg/mL) | – | – | – | – | – |
| Cc1cc(NC(=O)Cc2ccc(F)c(Cl)c2)n(C2CCCCC2)n1 [VU0810464] | 108 µM (≈ 37.9 µg/mL) | – | – | – | – | – |
| O=C(Nc1c[nH]nc1-c1nc2ccc(CN3CCOCC3)cc2[nH]1)NC1CC1 [AT9283] | – | Y (The compound was found to be cytotoxic (cell count threshold: <70% control) when murine immortalized microglial cells were dosed at 10 μM (Y: yes)) | Y (The compound was found to inhibit phagocytosis (response threshold: <70% control) when human immortalized microglial cells were dosed at 10 μM (Y: yes)) | Y (Published data supports that the compound is active in a cellular system when dosed at 10 μM (Y/N)) | 144 µM (≈ 55.1 µg/mL) | Inhibition of mouse microglial phagocytosis at 10 μM (<70% control) ([2]; BV2 cells, 10 μM): Y (The compound was found to inhibit phagocytosis (response threshold: <70% control) when murine immortalized microglial cells were dosed at 10 μM (Y: yes)) |
| COS(=O)(=O)[O-].C[n+]1c2ccccc2nc2ccccc21 [Phenazine methosulfate] | – | Y (The compound was found to be cytotoxic (cell count threshold: <70% control) when murine immortalized microglial cells were dosed at 10 μM (Y: yes)) | Y (The compound was found to inhibit phagocytosis (response threshold: <70% control) when human immortalized microglial cells were dosed at 10 μM (Y: yes)) | Y (Published data supports that the compound is active in a cellular system when dosed at 10 μM (Y/N)) | – | Human microglial cytotoxicity at 10 μM (<70% control) [5]: Y (The compound was found to be cytotoxic (cell count threshold: <70% control) when human immortalized microglial cells were dosed at 10 μM (Y: yes)); Inhibition of mouse microglial phagocytosis at 10 μM (<70% control) ([2]; BV2 cells, 10 μM): Y (The compound was found to inhibit phagocytosis (response threshold: <70% control) when murine immortalized microglial cells were dosed at 10 μM (Y: yes)); Kinetic solubility ([4]; aqueous buffer pH 7.4): 101.8 µM |
| COc1cc(Nc2ncc(F)c(Nc3ccc4c(n3)N(COP(=O)(O)O)C(=O)C(C)(C)O4)n2)cc(OC)c1OC [Fostamatinib] | – | Y (The compound was found to be cytotoxic (cell count threshold: <70% control) when murine immortalized microglial cells were dosed at 10 μM (Y: yes)) | – | Y (Published data supports that the compound is active in a cellular system when dosed at 10 μM (Y/N)) | 161 µM (≈ 93.5 µg/mL) | Inhibition of mouse microglial phagocytosis at 10 μM (<70% control) ([2]; BV2 cells, 10 μM): Y (The compound was found to inhibit phagocytosis (response threshold: <70% control) when murine immortalized microglial cells were dosed at 10 μM (Y: yes)); Stimulation of human microglial phagocytosis at 10 μM (>150% control) ([3]; HMC3 cells, 10 μM): Y (The compound was found to stimulate phagocytosis (response threshold: >150% control) when human immortalized microglial cells were dosed at 10 μM (Y: yes)) |
| COc1cc(/C=C/c2ccc(NC(=O)/C=C/c3cc(OC)c(OC)c(OC)c3)cc2)cc(OC)c1 [STAT3-IN-3] | – | Y (The compound was found to be cytotoxic (cell count threshold: <70% control) when murine immortalized microglial cells were dosed at 10 μM (Y: yes)) | Y (The compound was found to inhibit phagocytosis (response threshold: <70% control) when human immortalized microglial cells were dosed at 10 μM (Y: yes)) | Y (Published data supports that the compound is active in a cellular system when dosed at 10 μM (Y/N)) | 4.9 µM (≈ 2.33 µg/mL) | Inhibition of mouse microglial phagocytosis at 10 μM (<70% control) ([2]; BV2 cells, 10 μM): Y (The compound was found to inhibit phagocytosis (response threshold: <70% control) when murine immortalized microglial cells were dosed at 10 μM (Y: yes)) |
